“Also recorded” adds a separate entry of the source.
Legend:
THP-1 cells = test: Canonical inflammasome pyroptosis, LPS-primed THP-1 cells plus nigericin; assay type: cell-based, human; settings: THP-1, nigericin
Procedure: Cell viability assay. […] Primed THP-1 cells were pretreated with each test compound for 1 hr before addition of 20 μM nigericin or medium as control. The number of surviving cells was determined by CellTiter-Glo assay 1.5 hrs later. The final percent cell viability was calculated using the formula [(luminescencetest compound−luminescencencenegative control)/(luminescencencepositive control−luminescencenegative control)]×100, where wells with only LPS were used as positive controls and wells treated with LPS and nigericin were used as negative controls.
In FIGS. 4, 6, and 8, PMA-differentiated LPS-primed human THP-1 were pre-treated with indicated concentrations of each compound for 1 h before adding nigericin or medium. The number of surviving cells was determined by CellTiter-Glo assay (FIGS. 4 and 6) and IL-1β in culture supernatants was assessed by ELISA (FIG. 8) 2 hrs later. […] In FIGS. 8 and 9, 40 μM concentration of test compounds were added. […] Graphs show the mean±s.d. and data shown are representative of three independent experiments. **P<0.01.

mouse iBMDMs = test: Non-canonical inflammasome pyroptosis, iBMDMs with LPS electroporation; assay type: cell-based
Procedure: Cell lines and treatments: THP-1 cells and HEK293T cells (obtained from ATCC) were grown in RPMI with 10% heat-inactivated fetal bovine serum, supplemented with 100 U/ml penicillin G, 100 μg/ml streptomycin sulfate, 6 mM HEPES, 1.6 mM L-glutamine, and 50 μM 2ME. C57BL/6 mouse iBMDM cells were kindly provided by J. Kagan (Boston Children's Hospital) and cultured in DMEM with the same supplements. Cells were verified to be free of mycoplasma contamination. Transient transfection of HEK293T cells was performed using Lipofectamine 2000 (Invitrogen) according to the manufacturer's instructions. iBMDM cells were transfected by nucleofection using the Amaxa Nucleofector kit (VPA-1009). […] To examine IκBα. phosphorylation and degradation as well as IL-1β induction, PMA-differentiated THP-1 cells were stimulated with LPS (1 μg/ml) for 0.5, 1 and 4 hrs, respectively. For noncanoical inflammasome activation, 1 million iBMDM cells were electroporated with 1 μg ultra LPS.
Cytotoxicity and cell viability assays: cell death and cell viability were determined by the lactate dehydrogenase release assay using the CytoTox 96 Non-Radioactive Cytotoxicity Assay kit (Promega) and by measuring ATP levels using the CellTiter-Glo Luminescent Cell Viability Assay (Promega), respectively, according to the manufacturer's instructions. Luminescence and absorbance were measured on a BioTek Synergy 2 plate reader.
In FIGS. 4, 6, and 8, PMA-differentiated LPS-primed human THP-1 were pre-treated with indicated concentrations of each compound for 1 h before adding nigericin or medium. The number of surviving cells was determined by CellTiter-Glo assay (FIGS. 4 and 6) and IL-1β in culture supernatants was assessed by ELISA (FIG. 8) 2 hrs later. In FIGS. 5, 7, and 9, mouse iBMDMs were pre-treated with each test compound for 1 hr before electroporation with PBS or LPS. The number of surviving cells was determined by CellTiter-Glo assay (FIGS. 5 and 7) and IL-1β in culture supernatants was assessed by ELISA (FIG. 9) 2.5 hrs later. In FIGS. 8 and 9, 40 μM concentration of test compounds were added.

[1] = molecular target: T1, Alexa 488-labeled His-MBP-GSDMD (Homo sapiens, UniProt P57764); test: Microscale thermophoresis (MST) binding assay
T1 construct: made in house; host or cells: E. coli BL21 (DE3)
Procedure: Fluorescent protein labelling and microscale thermophoresis binding assay: His6-MBP-GSDMD was labeled with AlexaFluor-488 using the Molecular Probes protein labelling kit. Binding of inhibitors to GSDMD was evaluated using microscale thermophoresis (MST). Ligands (49 nM-150 μM) were incubated with purified AlexaFluor-488-labeled protein (80 nM) for 30 min in assay buffer (20 mM HEPES, 150 mM NaCl, 0.05% Tween 20). The sample was loaded into NanoTemper Monolith NT. 115 glass capillaries and MST carried out using 20% LED power and 40% MST power. Kd values were calculated using the mass action equation and NanoTemper software.
The test compounds were assessed for GSDMD binding by microscale thermophoresis (MST).

human GSDMD-3C = molecular target: T2, human GSDMD-3C (Homo sapiens, UniProt P57764); test: Liposome leakage assay, GSDMD-3C plus 3C protease; assay type: biochemical; settings: GSDMD-3C plus 3C protease
T2 construct: other: GSDMD-3C plus 3C protease; fused on or other part: His6-MBP tag, removed by TEV before use; The engineered 3C site is cut in the well by 3C protease and sets free GSDMD-NT
Procedure: Liposome leakage assay: fluorogenic liposome leakage assay detects leakage of Tb^3+ from Tb^3+-loaded liposomes incubated with GSDMD and caspase-11 (See References 7 and 9). Liposome leakage was detected by an increase in fluorescence when Tb^3+ bound to dipicolinic acid (DPA) in Buffer C. […] The fluorescence intensity of the well was measured at 545 nm with an excitation of 276 nm 1 hr after addition of caspase-11 using a Perkin Elmer EnVision plate reader. The final percent inhibition was calculated as [(fluorescencetest compound−fluorescencenegative control)/(fluorescencepositive control−fluorescencenegative control)]×100, where a well with GSDMD without the test compound was used as positive control, and a well without caspase-11 was used as negative control.
[LC retention time. […] (b).
To determine the relative contribution of caspase-11 inhibition versus GSDMD inhibition by disulfiram in pore formation, the caspase cleavage site in GSDMD was replaced with the rhinovirus 3C protease site (GSDMD-3C) and the 3C protease was used instead of caspase-11 in the liposome leakage assay.

HT-29 cells = test: Necroptosis induced by TNFα, SMAC mimetic and z-VAD-fmk; assay type: cell-based; settings: SMAC mimetic
Text: Inhibition was shown by cell survival, assessed by CellTiter-Glo ATP luminescence, and membrane permeabilization, assessed by uptake of the membrane-impermeable dye SYTOX Green.

mouse GSDMA3-3C = molecular target: T3, mouse GSDMA3-3C (Mus musculus, UniProt Q5Y4Y6); test: Liposome leakage assay, GSDMA3-3C plus 3C protease; assay type: biochemical; settings: read-out: IC50 of liposome leakage; 3C-cleaved GSDMA3-3C
T3 construct: other: 3C-cleaved GSDMA3-3C; Human GSDMD-3C and mouse GSDMA3-3C mutants were constructed by QuikChange Mutagenesis (Agilent Technologies); fused on or other part: His6-MBP tag, removed by TEV before use; The engineered 3C site is cut by 3C protease, so the N-terminal pore-forming fragment is set free in the well

NLRP3, GSDMD and HMGB1 = test: Peritoneal macrophages of LPS-challenged mice (immunoblot); assay type: in vivo, mouse; settings: 6 hrs after LPS
Procedure: Drug administration and LPS-induced sepsis in mice. […] In the indicated group of mice in FIG. 5h, copper gluconate (0.15 mg/kg) was administered intraperitoneally 6 hr prior to the first injection of DSF. Sepsis was induced in C57BL/6 mice (8-10 weeks old) by intraperitoneal injection of LPS (E. coli O111:B4) at indicated concentrations. In some experiments, mice were treated with copper gluconate (0.15 mg/kg) or vehicle by intraperitoneal injection 5 hr before LPS challenge and then given DSF (50 mg/kg) intraperitoneally dissolved in sesame oil or vehicle 4 hr before and just before LPS challenge (15 mg/kg intraperitoneally). Peritoneal cells were collected by rinsing the peritoneal cavity with ice cold PBS containing 3% FBS 6 hr after LPS challenge. To measure cytokines, blood samples were collected by tail vein bleed 12 hr post LPS challenge and allowed to clot at room temperature. Sera obtained after centrifugation at 2,000×g for 10 min were analysed for inflammatory cytokines by ELISA.
Peritoneal macrophages were harvested 6 hrs later and analysed for NLRP3, GSDMD and HMGB1 by immunoblot.

T1 sequence (P57764 whole entry): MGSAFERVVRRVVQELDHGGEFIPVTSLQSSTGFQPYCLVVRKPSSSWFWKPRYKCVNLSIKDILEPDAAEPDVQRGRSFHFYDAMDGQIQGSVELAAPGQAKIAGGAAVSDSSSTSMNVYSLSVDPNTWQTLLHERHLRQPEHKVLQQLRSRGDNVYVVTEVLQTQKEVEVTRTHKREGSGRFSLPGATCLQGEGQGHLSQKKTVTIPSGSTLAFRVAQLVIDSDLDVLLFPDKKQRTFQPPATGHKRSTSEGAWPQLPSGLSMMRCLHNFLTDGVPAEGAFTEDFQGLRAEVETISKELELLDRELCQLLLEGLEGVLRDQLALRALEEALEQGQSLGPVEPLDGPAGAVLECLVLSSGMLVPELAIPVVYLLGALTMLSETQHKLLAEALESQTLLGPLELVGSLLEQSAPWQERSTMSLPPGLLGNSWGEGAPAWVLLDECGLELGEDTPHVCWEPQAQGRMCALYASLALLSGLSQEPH
T2 sequence (P57764 1-271 limits assumed): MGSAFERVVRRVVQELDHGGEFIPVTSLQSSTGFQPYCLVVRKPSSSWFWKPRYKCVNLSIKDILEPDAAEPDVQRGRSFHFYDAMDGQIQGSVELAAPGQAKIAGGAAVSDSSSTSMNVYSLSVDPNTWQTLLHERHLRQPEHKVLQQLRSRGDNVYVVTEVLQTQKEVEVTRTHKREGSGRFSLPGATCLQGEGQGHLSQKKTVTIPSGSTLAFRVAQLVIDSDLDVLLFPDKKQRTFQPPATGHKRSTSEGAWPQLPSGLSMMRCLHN
T3 sequence (Q5Y4Y6 with tags, fused parts or gaps INS262LEVLFQGP, form open): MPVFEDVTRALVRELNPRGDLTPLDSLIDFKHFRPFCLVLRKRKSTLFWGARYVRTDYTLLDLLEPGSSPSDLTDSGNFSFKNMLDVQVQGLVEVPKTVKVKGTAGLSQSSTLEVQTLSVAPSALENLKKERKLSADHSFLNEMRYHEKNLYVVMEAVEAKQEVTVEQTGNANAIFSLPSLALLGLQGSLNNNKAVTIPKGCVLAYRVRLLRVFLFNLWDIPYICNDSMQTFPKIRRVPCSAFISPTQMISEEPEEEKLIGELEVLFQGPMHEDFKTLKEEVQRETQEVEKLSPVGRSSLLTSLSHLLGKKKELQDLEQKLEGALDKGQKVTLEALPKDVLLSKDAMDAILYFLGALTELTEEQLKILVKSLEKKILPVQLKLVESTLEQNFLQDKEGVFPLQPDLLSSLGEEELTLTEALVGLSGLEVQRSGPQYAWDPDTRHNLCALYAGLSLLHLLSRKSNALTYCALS

| SMILES | inhibition of canonical inflammasome pyroptosis (THP-1 cells) | inhibition of non-canonical inflammasome pyroptosis (mouse iBMDMs) | binding to GSDMD according to MST [1] | IC50 (human GSDMD-3C) [µM] | necroptosis (HT-29 cells) | IC50 (mouse GSDMA3-3C) [µM] | GSDMD processing in peritoneal macrophages (NLRP3, GSDMD and HMGB1) | NLRP3 priming in mice (NLRP3, GSDMD and HMGB1) |
| --- | --- | --- | --- | --- | --- | --- | --- | --- |
| Cc1ccc(S(=O)(=O)/C=C/C#N)cc1 [Bay 11-7082] | also inhibits the canonical inflammasome pathway; also recorded: more effective at inhibiting canonical inflammasome-dependent pyroptosis than disulfiram in the absence of copper | less active than disulfiram | bound to GSDMD; also recorded: lower affinity |  |  |  |  |  |
| CCN(CC)C(=S)SSC(=S)N(CC)CC [C-23, Tetraethylthiuram disulfide] |  |  |  | 0.52 ± 0.03 | had no effect on necroptosis | 12.1 ± 2.1 | equally processed | did not inhibit NLRP3 priming in mice |

— US20210267996A1, “Compounds for inhibition of inflammation” (Children`s Medical Center Corporation, priority 2018, published 2021)
